Columns and labels:
c-myb:GFP = c-myb:GFP zebrafish blastomere embryo culture chemical screen; type: cell-based; conditions: approximately 30 μM, 2 days
Procedure: The inventors have developed an embryo culture system in which embryos bearing a c-myb:GFP transgenic reporter were dissociated during sphere stage at 4 hours post fertilization (hpf), and cultured in gelatin-coated 384 well plates with chemicals for 2 days until imaging for fluorescent reporter activity (FIG. 1). This fluorescent transgene is expressed in a similar pattern to the endogenous gene. […] This transgene responds to inducers of hematopoiesis, as myb is a marker of hematopoietic stem cells (HSCs).
The image analysis software (ImageJ and MatLab) was used to identify hits that downregulate c-myb:GFP zebrafish embryo cultures by a z-score less than […] and more than 70% downregulation. Hits were assessed by eye and scored for morphology. Toxic compounds that caused poor embryoid body (EB) formation were assessed a 4.
Zebrafish cell culture: Zebrafish embryo cultures were adapted from Xu (2013). Dissociated blastomere cells were grown in medium composed of 85% LDF medium, 5% heat inactivated FBS, and 10% zebrafish day 1 embryo extract. LDF medium contains 50% Leibowitz's L-15 (Invitrogen), 20% DMEM (Invitrogen), and 30% DMEM/F-12 (Invitrogen), supplemented with 0.018% sodium bicarbonate, 15 mM HEPES (Invitrogen), 1% L-Glutamine (Invitrogen), 10 nM sodium selenite (Sigma-Aldrich), 1% N2 (Invitrogen), 2% B27 (Invitrogen), 1% Penicillin-Streptomycin (Invitrogen), and 0.2% Primocin (InvivoGen).
Screening procedures: Two 384-well plates were coated with 0.1% gelatin for each chemical library plate. Males of the c-myb:GFP transgenic line were set up overnight with casper females and kept separated until morning when they were mixed for mating. Embryos were washed twice with E3 embryo water and treated with pronase to remove chorions. Dechorionated embryos were washed with E3 embryo water and collected into tubes containing media. Embryos were disassociated by shaking ˜10 times and were filtered through a 40 μm nylon mesh filter. Resulting single cells were diluted with medium and aliquoted 30 μl per well into the 384-well plates at approximately 2 embryo equivalents per well. Chemicals were dispensed immediately afterwards with an Agilent Bravo robot. Chemicals from the libraries were diluted 300 times with LDF medium and were aliquoted 10 μl per well for a final concentration of approximately 33 μM. […] Cells were cultured in a 28° C. incubator with 5% CO2. Two days later, cells were imaged by a Yokogawa Cell Voyager 7000 imager. Images were analyzed by ImageJ and MatLab and confirmed by eye. […]
Culture of dissociated blastomere cells: Stage-matched zebrafish blastomeres were dissociated at 4 hpf and grown in medium composed of 85% LDF medium, 5% FBS, and 10% embryo extract. LDF medium contains 50% Leibowitz's L-15 (Invitrogen), 20% DMEM (Invitrogen), and 30% DMEM/F-12 (Invitrogen), supplemented with 2% B27 (Gibco), 15 mM HEPES (Gibco), 1% L-glutamine (Gibco), 1% N2 (Gibco), 10 nM sodium selenite (Sigma), 100 ug/mL piperacillin (Sigma), 10 ug/mL ciprofloxacin (GenHunter), and 0.018% sodium bicarbonate (Gibco). Embryo extract was made by homogenizing 24 hpf wildtype AB embryos in HBSS (Gibco).

ACCx6 = test: ACC xenotransplantation trial, ACCx6; type: in vivo, nude mice; conditions: oral 0.2 mL flat dose: ATRA 4 mg/mL, isotretinoin 30 mg/mL, fenretinide 40 mg/mL
Procedure: (§1) Xenograft experiments: To generate ACC xenografts, 1×10^6 viable ACC cells were injected into the flank of female nude (Foxn1nu) mice for in vivo drug testing of ACCx6, ACCx9, and ACCx11 lines. Once tumors were visible, the mice were randomized to receive vehicle control or drug until reaching a […] tumor volume of 1,000 mm3. The mice in each group were treated with an oral flat dose five times weekly (po qdx5) for four cycles (two days off between cycles). The exact dosing was determined based on an initial MTD tolerability study and published literature reports. Five mice per group were treated for ACCx6 and ACCx9, and four mice per group were treated for ACCx11 (five mice in the control ACCx11 group), and the tumor volumes were quantified. Mice were treated with a flat dose of 0.2 mL orally of: 30 mg/mL isotretinoin; 40 mg/mL fenretinide; 4 mg/mL ATRA for ACCx6 and ACCx11 or 3 mg/mL ATRA for ACCx9. Mouse procedures used in this study were approved by the IACUC at South Texas Accelerated Research Therapeutics (San Antonio, Tex.).
(§2) Primagraft experiments: For in vivo drug testing, ACC tumor fragments from host animals were implanted subcutaneously into the flank of nude mice (CRL: ATH/NU). Once tumors reached 125-250 mm3, mice were randomized to receive vehicle or drug diluted in 10:90 DMSO:10% hydroxypropyl-beta-cyclodextrin orally until controls reached a tumor volume endpoint of 1-2 cm3 (4-9 mice per group: x5M1 and x6, 4 treated vs. 9 vehicle controls; x9, 4 treated vs. 5 vehicle controls; x11, 5 treated vs. 8 vehicle controls). Mice were treated with ATRA (ACC x6 and x11: 4 mg/mL, 0.2 mL flat dose; ACC×9: 3 mg/mL, 0.2 mL flat dose) or isotretinoin (30 mg/mL, 0.2 mL flat dose). Tumor growth was monitored and mice weighed twice weekly and studies ended when final group reached tumor volume endpoint. No statistical methods were employed to determine the sample size, and no blinding of investigators was performed. […]

ACCx9 = test: ACC xenotransplantation trial, ACCx9; type: in vivo, nude mice; conditions: oral 0.2 mL flat dose: ATRA 3 mg/mL, isotretinoin 30 mg/mL, fenretinide 40 mg/mL
Procedure: as §1, §2

ACCx11 = test: ACC xenotransplantation trial, ACCx11; type: in vivo, nude mice; conditions: for tumor growth inhibition ACCx11: oral 0.2 mL flat dose: ATRA 4 mg/mL, isotretinoin 30 mg/mL, fenretinide 40 mg/mL
Procedure: as §1
Primagraft experiments: For in vivo drug testing, ACC tumor fragments from host animals were implanted subcutaneously into the flank of nude mice (CRL: ATH/NU). Once tumors reached 125-250 mm3, mice were randomized to receive vehicle or drug diluted in 10:90 DMSO:10% hydroxypropyl-beta-cyclodextrin orally until controls reached a tumor volume endpoint of 1-2 cm3 (4-9 mice per group: x5M1 and x6, 4 treated vs. 9 vehicle controls; x9, 4 treated vs. 5 vehicle controls; x11, 5 treated vs. 8 vehicle controls). Mice were treated with ATRA (ACC x6 and x11: 4 mg/mL, 0.2 mL flat dose; ACC×9: 3 mg/mL, 0.2 mL flat dose) or isotretinoin (30 mg/mL, 0.2 mL flat dose). Tumor growth was monitored and mice weighed twice weekly and studies ended when final group reached tumor volume endpoint. No statistical methods were employed to determine the sample size, and no blinding of investigators was performed. After long-term tumor growth inhibition studies were completed, the ATRA treated mice stopped receiving treatment and were maintained longer as indicated to monitor tumor maintenance after treatment cessation. For long-term tumor growth inhibition studies, ACC x6, x9, and x11 models were used and primagrafts collected at the completion of the study. Short-term kinetics studies were also undertaken with ACC x9 and x5M1 primagrafts involving 3 day ATRA treatments. All animal procedures used in this study were approved by the IACUC at START, San Antonio, Tex.

[1] = Table 2, c-myb:GFP embryo cultures, average across two plates
[2] = Table 3, GFP signal in blastomere embryo culture screen

Row | Compound | Z-Score (c-myb:GFP; [1]) | Z-Score (c-myb:GFP; [2]) | tumor growth inhibition ACCx6 (ACCx6) [%] | tumor growth inhibition ACCx9 (ACCx9) [%] | tumor growth inhibition ACCx11 (ACCx11) [%] | tumor growth inhibition after discontinuation of treatment, ACC x11 (ACCx11; after approximately 28 days of treatment)
1 | CC1=C(/C=C/C(C)=C/C=C/C(C)=C\C(=O)O)C(C)(C)CCC1 [Isotretinoin, 13-cis-retinoic acid] | −5.054 | −5.054 | 69 | 95 | 94 | 
2 | CC1=C(/C=C/C(C)=C/C=C/C(C)=C/C(=O)Nc2ccc(O)cc2)C(C)(C)CCC1 [Fenretinide, retinoic acid p-hydroxyanilide] | −1.582 | −1.582 | 60 | 57 | 41 | 
3 | CC(C=CC1=C(C)CCCC1(C)C)=CC=C/C(C)=C/C(=O)O [ATRA, (E)-3,7-dimethyl-9-(2,6,6-trimethyl-1-cyclo-hexen-1-yl)-2,4,6,8-nonatetraenoic acid] | −5.729 | −5.729 | 81 | 78 | 105 | sustained

— patent US10668039B2, “Methods for treatment of adenoid cystic carcinoma” (THE CHILDREN'S MEDICAL CENTER CORPORATION, priority 2016, dated 2020)
